{
  "source": "BindingDB's records for doi:10.1016/S0960-894X(00)80229-2",
  "about": "(1992)",
  "experiment": "Agonistic activity at kappa opioid receptor of rabbit vas deferens",
  "data": [
    {"smiles": "CC(=O)N1CCN(C(=O)Cc2ccc(Cl)c(Cl)c2)C(CN2CC[C@H](O)C2)C1", "note": "(stereo partly drawn) [1-[4-Acetyl-2-((S)-3-hydroxy-pyrrolidin-1-ylmethyl)-piperazin-1-yl]-2-(3,4-dichloro-phenyl)-ethanone]", "values": [
      {"measurement": "IC50", "value": 0.22, "unit": "nM"}
    ]},
    {"smiles": "CC(=O)N1CCN(C(=O)Cc2cc(F)cc(F)c2)C(CN2CC[C@H](O)C2)C1", "note": "(stereo partly drawn) [1-[4-Acetyl-2-((S)-3-hydroxy-pyrrolidin-1-ylmethyl)-piperazin-1-yl]-2-(3,5-difluoro-phenyl)-ethanone]", "values": [
      {"measurement": "IC50", "value": 4.6, "unit": "nM"}
    ]},
    {"smiles": "COc1cccc(CC(=O)N2CCN(C(C)=O)CC2CN2CC[C@H](O)C2)c1", "note": "(stereo partly drawn) [1-[4-Acetyl-2-((S)-3-hydroxy-pyrrolidin-1-ylmethyl)-piperazin-1-yl]-2-(3-methoxy-phenyl)-ethanone]", "values": [
      {"measurement": "IC50", "value": 49, "unit": "nM"}
    ]},
    {"smiles": "CC(=O)N1CCN(C(=O)Cc2cccc([N+](=O)[O-])c2)C(CN2CC[C@H](O)C2)C1", "note": "(stereo partly drawn) [1-[4-Acetyl-2-((S)-3-hydroxy-pyrrolidin-1-ylmethyl)-piperazin-1-yl]-2-(3-nitro-phenyl)-ethanone]", "values": [
      {"measurement": "IC50", "value": 14, "unit": "nM"}
    ]},
    {"smiles": "CC(=O)N1CCN(C(=O)Cc2ccc([S+](C)[O-])cc2)C(CN2CC[C@H](O)C2)C1", "note": "(stereo partly drawn) [1-[4-Acetyl-2-((S)-3-hydroxy-pyrrolidin-1-ylmethyl)-piperazin-1-yl]-2-(4-methanesulfinyl-phenyl)-ethanone]", "values": [
      {"measurement": "IC50", "value": 140, "unit": "nM"}
    ]},
    {"smiles": "CC(=O)N1CCN(C(=O)Cc2ccc(S(C)(=O)=O)cc2)C(CN2CC[C@H](O)C2)C1", "note": "(stereo partly drawn) [1-[4-Acetyl-2-((S)-3-hydroxy-pyrrolidin-1-ylmethyl)-piperazin-1-yl]-2-(4-methanesulfonyl-phenyl)-ethanone]", "values": [
      {"measurement": "IC50", "value": 0.9, "unit": "nM"}
    ]},
    {"smiles": "COc1ccc(CC(=O)N2CCN(C(C)=O)CC2CN2CC[C@H](O)C2)cc1", "note": "(stereo partly drawn) [1-[4-Acetyl-2-((S)-3-hydroxy-pyrrolidin-1-ylmethyl)-piperazin-1-yl]-2-(4-methoxy-phenyl)-ethanone]", "values": [
      {"measurement": "IC50", "value": 230, "unit": "nM"}
    ]},
    {"smiles": "CSc1ccc(CC(=O)N2CCN(C(C)=O)CC2CN2CC[C@H](O)C2)cc1", "note": "(stereo partly drawn) [1-[4-Acetyl-2-((S)-3-hydroxy-pyrrolidin-1-ylmethyl)-piperazin-1-yl]-2-(4-methylsulfanyl-phenyl)-ethanone]", "values": [
      {"measurement": "IC50", "value": 37, "unit": "nM"}
    ]},
    {"smiles": "CC(=O)N1CCN(C(=O)Cc2ccc([N+](=O)[O-])cc2)C(CN2CC[C@H](O)C2)C1", "note": "(stereo partly drawn) [1-[4-Acetyl-2-((S)-3-hydroxy-pyrrolidin-1-ylmethyl)-piperazin-1-yl]-2-(4-nitro-phenyl)-ethanone]", "values": [
      {"measurement": "IC50", "value": 6.3, "unit": "nM"}
    ]},
    {"smiles": "CC(=O)N1CCN(C(=O)Cc2ccc(C(F)(F)F)cc2)C(CN2CC[C@H](O)C2)C1", "note": "(stereo partly drawn) [1-[4-Acetyl-2-((S)-3-hydroxy-pyrrolidin-1-ylmethyl)-piperazin-1-yl]-2-(4-trifluoromethyl-phenyl)-ethanone]", "values": [
      {"measurement": "IC50", "value": 1.5, "unit": "nM"}
    ]},
    {"smiles": "CC(=O)N1CCN(C(=O)Cc2ccccc2)C(CN2CC[C@H](O)C2)C1", "note": "(stereo partly drawn) [1-[4-Acetyl-2-((S)-3-hydroxy-pyrrolidin-1-ylmethyl)-piperazin-1-yl]-2-phenyl-ethanone]", "values": [
      {"measurement": "IC50", "value": 400, "unit": "nM"}
    ]},
    {"smiles": "COC(=O)N1CCN(C(=O)Cc2ccc(Cl)c(Cl)c2)[C@@H](CN2CCCC2)C1", "note": "[4-[2-(3,4-Dichloro-phenyl)-acetyl]-3-pyrrolidin-1-ylmethyl-piperazine-1-carboxylic acid methyl ester]", "values": [
      {"measurement": "IC50", "value": 0.02, "unit": "nM"}
    ]}
  ]
}
